From article PMC4076210, “Discovery of Novel AKT Inhibitors with Enhanced Anti-Tumor Effects in Combination with the MEK Inhibitor” (PLoS ONE, 2014)
Like-named read-outs stand apart in the source and are kept apart here.

Legend:
[1] = biological target: T1, EphA7(h) (Homo sapiens, UniProt Q15375); assay: Kinase panel; type: biochemical
T1 construct: purchased Millipore KinaseProfiler

[2] = Plasma insulin after single oral dose; type: in vivo, mouse
Method: Blood glucose levels were determined from tail vein puncture in mice using a handheld glucometer. Plasma Insulin levels were using the Rat Ultrasensitive Insulin ELISA kit (Crystal Chem Inc).

[3] = biological target: T2, Lck(h) (Homo sapiens, UniProt P06239); assay: Kinase panel; type: biochemical
T2 construct: purchased Millipore KinaseProfiler

[4] = biological target: T3, cKit(D816V)(h) (Homo sapiens, UniProt P10721, D816V); assay: Kinase panel; type: biochemical
T3 construct: purchased Millipore KinaseProfiler

[5] = biological target: T4, Lyn(h) (Homo sapiens, UniProt P07948); assay: Kinase panel; type: biochemical
T4 construct: purchased Millipore KinaseProfiler

[6] = biological target: T5, LKB1(h) (Homo sapiens, UniProt Q15831); assay: Kinase panel; type: biochemical
T5 construct: purchased Millipore KinaseProfiler
T5 sequence (Q15831 1-433): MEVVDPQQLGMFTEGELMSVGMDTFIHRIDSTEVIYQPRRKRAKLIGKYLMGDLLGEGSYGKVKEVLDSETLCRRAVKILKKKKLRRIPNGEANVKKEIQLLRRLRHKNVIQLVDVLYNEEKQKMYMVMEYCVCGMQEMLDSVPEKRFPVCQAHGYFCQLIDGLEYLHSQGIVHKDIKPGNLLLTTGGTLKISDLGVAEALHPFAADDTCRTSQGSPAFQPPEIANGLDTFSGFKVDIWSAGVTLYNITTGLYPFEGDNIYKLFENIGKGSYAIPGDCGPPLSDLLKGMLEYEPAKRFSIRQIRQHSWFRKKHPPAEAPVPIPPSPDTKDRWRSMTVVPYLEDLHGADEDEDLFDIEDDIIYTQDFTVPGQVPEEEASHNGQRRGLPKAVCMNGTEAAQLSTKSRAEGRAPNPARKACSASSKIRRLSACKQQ
T5 sequence (Q7RTN6 1-431 partner): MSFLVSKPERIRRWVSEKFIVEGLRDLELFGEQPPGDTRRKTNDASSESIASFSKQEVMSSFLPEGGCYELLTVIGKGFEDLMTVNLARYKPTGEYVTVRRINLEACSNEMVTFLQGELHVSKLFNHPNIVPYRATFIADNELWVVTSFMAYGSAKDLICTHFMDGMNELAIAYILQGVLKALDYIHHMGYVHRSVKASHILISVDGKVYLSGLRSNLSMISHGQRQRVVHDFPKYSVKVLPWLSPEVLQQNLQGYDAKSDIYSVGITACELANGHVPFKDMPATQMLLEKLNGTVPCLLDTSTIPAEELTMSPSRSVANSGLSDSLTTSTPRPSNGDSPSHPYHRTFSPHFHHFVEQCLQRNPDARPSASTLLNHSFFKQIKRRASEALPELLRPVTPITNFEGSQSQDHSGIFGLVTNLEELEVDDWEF
T5 sequence (Q9Y376 1-341 partner): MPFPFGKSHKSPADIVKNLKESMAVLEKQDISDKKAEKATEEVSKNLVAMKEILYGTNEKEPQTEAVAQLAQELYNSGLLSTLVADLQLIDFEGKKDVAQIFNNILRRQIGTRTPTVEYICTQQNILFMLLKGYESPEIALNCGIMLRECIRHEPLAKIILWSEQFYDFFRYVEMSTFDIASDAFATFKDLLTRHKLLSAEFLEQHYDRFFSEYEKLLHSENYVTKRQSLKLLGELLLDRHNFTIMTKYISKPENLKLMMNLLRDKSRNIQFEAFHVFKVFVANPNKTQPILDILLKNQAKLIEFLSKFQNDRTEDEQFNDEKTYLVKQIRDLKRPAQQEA

[7] = biological target: T6, PRK2(h) (Homo sapiens, UniProt Q16513); assay: Kinase panel; type: biochemical
T6 construct: purchased Millipore KinaseProfiler

[8] = biological target: T7, CDK2/cyclinA(h) (Homo sapiens, UniProt P24941); assay: Kinase panel; type: biochemical
T7 construct: purchased Millipore KinaseProfiler

[9] = biological target: T8, MELK(h) (Homo sapiens, UniProt Q14680); assay: Kinase panel; type: biochemical
T8 construct: purchased Millipore KinaseProfiler

[10] = biological target: T9, IKKβ(h) (Homo sapiens, UniProt O14920); assay: Kinase panel; type: biochemical
T9 construct: purchased Millipore KinaseProfiler
T9 sequence (O14920 1-756): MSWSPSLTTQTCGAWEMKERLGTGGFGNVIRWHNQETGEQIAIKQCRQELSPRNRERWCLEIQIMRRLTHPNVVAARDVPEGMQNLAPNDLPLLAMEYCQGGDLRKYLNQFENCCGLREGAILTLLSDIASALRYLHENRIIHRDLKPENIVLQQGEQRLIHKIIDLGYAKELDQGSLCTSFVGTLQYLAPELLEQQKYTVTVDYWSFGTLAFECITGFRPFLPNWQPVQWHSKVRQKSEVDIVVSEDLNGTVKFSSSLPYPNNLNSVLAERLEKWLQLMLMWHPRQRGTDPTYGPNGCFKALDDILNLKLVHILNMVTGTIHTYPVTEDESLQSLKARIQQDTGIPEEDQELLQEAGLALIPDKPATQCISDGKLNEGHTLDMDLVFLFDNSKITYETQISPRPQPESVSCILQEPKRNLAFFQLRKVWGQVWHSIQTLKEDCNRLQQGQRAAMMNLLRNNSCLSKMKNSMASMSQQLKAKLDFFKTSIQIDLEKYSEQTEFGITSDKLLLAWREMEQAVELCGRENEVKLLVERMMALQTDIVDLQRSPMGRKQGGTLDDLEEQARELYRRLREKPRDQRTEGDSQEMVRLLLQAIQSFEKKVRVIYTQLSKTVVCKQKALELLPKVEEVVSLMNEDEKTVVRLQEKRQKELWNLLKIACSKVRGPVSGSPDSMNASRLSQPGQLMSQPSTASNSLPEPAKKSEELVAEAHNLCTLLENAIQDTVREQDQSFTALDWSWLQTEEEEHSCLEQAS

[11] = biological target: PKCθ (Homo sapiens, UniProt Q04759); assay: Kinase IC50 assay; type: biochemical
[12] = biological target: T10, ROCK-I(h) (Homo sapiens, UniProt Q13464); assay: Kinase panel; type: biochemical
T10 construct: purchased Millipore KinaseProfiler

[13] = biological target: T11, FAK(h) (Homo sapiens, UniProt Q05397); assay: Kinase panel; type: biochemical
T11 construct: purchased Millipore KinaseProfiler

[14] = test system: AMPK(r); assay: Kinase panel; type: biochemical, rat

T6 sequence (Q16513 whole entry): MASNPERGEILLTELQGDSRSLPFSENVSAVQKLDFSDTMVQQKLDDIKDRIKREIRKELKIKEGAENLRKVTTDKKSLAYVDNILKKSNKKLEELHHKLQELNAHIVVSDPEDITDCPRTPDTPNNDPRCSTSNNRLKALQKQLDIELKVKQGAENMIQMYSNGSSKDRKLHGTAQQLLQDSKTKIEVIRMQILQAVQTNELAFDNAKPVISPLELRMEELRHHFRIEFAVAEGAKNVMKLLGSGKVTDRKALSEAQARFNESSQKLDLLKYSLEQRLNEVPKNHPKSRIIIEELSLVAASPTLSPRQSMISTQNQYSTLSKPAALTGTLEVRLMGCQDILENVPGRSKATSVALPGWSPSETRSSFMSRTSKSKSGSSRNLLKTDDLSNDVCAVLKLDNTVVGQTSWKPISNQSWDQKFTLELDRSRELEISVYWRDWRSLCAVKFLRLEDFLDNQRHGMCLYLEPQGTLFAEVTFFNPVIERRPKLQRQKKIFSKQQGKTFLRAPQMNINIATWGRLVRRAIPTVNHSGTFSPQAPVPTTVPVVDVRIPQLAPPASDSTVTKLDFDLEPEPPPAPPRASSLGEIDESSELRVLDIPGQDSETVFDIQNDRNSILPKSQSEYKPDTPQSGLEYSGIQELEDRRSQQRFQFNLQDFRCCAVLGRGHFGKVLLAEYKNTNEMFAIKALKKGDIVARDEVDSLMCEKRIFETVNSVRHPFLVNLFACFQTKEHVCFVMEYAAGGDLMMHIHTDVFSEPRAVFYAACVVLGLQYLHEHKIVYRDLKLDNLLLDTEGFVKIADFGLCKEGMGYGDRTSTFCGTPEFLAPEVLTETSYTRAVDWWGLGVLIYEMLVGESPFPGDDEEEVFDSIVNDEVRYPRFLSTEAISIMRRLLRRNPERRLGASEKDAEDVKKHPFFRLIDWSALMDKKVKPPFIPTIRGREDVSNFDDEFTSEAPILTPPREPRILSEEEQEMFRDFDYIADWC
T3 sequence (P10721 26-976 D816V): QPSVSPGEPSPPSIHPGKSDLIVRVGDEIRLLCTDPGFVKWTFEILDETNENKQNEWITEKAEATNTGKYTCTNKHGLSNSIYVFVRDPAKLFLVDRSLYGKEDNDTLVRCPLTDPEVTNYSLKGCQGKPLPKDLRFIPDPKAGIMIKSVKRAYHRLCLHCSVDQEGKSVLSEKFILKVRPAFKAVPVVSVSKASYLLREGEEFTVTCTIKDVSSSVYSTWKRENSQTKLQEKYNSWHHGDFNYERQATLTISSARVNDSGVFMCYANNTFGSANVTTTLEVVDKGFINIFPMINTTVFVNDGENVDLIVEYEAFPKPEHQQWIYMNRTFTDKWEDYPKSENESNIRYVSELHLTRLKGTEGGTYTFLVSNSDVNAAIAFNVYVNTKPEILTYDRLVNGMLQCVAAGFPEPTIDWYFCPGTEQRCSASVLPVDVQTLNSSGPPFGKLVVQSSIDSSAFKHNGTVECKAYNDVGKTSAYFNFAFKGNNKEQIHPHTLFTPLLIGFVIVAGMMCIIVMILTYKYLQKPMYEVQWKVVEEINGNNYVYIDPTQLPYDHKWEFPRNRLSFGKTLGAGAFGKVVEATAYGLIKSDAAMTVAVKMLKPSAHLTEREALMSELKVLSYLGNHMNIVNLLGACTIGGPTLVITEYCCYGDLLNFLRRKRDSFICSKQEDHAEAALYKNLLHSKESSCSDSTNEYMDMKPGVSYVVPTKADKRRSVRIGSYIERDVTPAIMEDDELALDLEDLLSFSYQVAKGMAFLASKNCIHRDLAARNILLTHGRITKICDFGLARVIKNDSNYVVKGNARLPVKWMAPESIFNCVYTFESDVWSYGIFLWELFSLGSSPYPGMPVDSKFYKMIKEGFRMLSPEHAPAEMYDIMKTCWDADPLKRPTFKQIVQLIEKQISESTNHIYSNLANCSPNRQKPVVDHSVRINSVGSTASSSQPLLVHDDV
T4 sequence (P07948 whole entry): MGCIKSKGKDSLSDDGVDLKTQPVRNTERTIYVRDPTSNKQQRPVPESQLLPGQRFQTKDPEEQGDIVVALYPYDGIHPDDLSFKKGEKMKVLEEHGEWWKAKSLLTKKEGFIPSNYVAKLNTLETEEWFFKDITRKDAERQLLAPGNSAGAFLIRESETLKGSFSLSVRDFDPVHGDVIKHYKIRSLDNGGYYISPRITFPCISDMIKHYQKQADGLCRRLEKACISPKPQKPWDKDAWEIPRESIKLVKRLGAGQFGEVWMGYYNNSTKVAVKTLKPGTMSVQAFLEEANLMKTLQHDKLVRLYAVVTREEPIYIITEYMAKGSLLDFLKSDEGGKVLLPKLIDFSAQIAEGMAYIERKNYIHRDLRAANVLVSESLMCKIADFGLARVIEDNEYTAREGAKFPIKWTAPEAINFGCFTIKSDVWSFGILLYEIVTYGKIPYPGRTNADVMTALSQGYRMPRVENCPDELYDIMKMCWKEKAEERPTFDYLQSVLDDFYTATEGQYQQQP
T2 sequence (P06239 whole entry): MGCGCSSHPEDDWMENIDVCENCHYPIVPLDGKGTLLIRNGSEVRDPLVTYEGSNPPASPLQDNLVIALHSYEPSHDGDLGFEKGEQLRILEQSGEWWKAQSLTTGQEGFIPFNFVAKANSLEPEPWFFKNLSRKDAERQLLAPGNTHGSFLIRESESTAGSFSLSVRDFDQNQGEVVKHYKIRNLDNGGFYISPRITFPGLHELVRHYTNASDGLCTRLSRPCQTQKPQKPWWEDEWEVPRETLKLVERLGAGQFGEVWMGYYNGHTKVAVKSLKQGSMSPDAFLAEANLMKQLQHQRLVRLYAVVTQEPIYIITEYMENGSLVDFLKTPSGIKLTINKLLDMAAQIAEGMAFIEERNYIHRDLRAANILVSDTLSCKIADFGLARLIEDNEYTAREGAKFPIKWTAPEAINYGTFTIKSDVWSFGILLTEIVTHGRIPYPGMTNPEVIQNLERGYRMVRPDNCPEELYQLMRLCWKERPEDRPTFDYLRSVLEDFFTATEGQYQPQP
T10 sequence (Q13464 whole entry): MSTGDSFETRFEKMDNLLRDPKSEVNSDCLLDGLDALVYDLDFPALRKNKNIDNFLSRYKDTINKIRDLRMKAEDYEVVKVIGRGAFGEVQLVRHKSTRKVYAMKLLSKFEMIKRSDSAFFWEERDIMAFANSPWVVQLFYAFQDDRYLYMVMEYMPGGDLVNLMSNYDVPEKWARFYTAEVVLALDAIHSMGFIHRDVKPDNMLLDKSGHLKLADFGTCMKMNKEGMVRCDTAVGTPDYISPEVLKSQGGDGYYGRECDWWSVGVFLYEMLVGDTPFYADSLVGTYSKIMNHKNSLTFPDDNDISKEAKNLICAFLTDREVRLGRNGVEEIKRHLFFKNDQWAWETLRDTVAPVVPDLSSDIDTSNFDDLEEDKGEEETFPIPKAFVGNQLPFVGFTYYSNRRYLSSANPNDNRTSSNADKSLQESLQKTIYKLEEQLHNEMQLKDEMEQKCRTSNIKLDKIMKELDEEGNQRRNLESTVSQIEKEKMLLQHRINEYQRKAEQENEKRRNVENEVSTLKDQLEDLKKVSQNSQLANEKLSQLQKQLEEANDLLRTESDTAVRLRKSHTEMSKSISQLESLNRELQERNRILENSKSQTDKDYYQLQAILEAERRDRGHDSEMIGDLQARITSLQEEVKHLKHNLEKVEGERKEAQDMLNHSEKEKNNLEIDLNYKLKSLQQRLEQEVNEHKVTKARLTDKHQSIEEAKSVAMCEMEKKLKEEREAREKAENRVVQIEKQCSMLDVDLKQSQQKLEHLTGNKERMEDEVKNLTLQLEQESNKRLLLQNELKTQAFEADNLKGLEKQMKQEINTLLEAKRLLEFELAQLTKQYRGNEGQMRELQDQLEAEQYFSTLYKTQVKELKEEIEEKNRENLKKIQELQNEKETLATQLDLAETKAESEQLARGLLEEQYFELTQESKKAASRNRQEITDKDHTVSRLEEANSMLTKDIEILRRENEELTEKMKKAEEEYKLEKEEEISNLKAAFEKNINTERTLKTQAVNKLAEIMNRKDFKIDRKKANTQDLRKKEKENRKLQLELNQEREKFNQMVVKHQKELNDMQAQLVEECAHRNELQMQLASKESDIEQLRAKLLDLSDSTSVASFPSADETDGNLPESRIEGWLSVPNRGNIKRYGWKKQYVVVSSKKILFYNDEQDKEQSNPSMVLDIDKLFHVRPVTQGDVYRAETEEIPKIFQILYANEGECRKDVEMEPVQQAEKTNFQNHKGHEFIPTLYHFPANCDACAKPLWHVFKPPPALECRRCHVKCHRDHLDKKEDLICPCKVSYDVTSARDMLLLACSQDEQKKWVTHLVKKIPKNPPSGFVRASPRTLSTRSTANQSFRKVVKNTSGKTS
T8 sequence (Q14680 whole entry): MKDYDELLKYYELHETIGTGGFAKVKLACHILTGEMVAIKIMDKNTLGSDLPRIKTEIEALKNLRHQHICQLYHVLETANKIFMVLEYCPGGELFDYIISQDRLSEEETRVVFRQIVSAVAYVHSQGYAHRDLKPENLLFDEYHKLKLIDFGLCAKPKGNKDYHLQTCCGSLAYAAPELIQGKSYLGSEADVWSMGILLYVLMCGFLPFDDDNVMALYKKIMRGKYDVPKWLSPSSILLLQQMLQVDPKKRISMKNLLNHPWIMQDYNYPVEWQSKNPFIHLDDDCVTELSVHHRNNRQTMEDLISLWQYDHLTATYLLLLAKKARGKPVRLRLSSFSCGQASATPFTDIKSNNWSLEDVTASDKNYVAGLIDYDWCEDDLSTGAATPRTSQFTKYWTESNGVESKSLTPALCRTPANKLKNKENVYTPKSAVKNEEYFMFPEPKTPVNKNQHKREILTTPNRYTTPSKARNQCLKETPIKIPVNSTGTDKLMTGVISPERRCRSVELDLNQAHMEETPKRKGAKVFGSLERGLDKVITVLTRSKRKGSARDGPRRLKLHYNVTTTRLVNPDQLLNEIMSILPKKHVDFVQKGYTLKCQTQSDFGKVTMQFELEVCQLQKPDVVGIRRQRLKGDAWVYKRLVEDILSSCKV

In the case of `Cn1ncc(Cl)c1-c1cc(C(=O)N[C@H](CN)Cc2cccc(F)c2)sc1Cl` [GSK2110183], the inhibition at 0.5 µM [1] is reported as -4%, the inhibition at 10 µM [1] is reported as 8% and the “time for insulin to return to baseline” value ([2]; 100 mg/kg single oral dose) is reported as no more than 8 h. For the same molecule, the insulin level ([2]; 100 mg/kg single oral dose, 4 h post dosing) was 105.6 ng/mL, the inhibition at 0.5 µM [3] was 7% and the inhibition at 10 µM [3] was 35%. It also gave an inhibition at 0.5 µM [4] of 0%, an inhibition at 10 µM [4] of 9% and an inhibition at 0.5 µM [5] of -12%. The inhibition at 10 µM [5] was 7%, the inhibition at 0.5 µM [6] was -2% and the inhibition at 10 µM [6] was 40%. For the same molecule, the inhibition at 0.5 µM [7] was 71%, the inhibition at 10 µM [7] was 99% and the inhibition at 0.5 µM [8] was -10%. For the same molecule, the inhibition at 10 µM [8] was 1%, the inhibition at 0.5 µM [9] was 79% and the inhibition at 10 µM [9] was 97%. For the same molecule, the inhibition at 0.5 µM [10] was 5%, the inhibition at 10 µM [10] was 18% and the IC50 [11] was 510 nM. It also gave an inhibition at 0.5 µM [12] of 12%, an inhibition at 10 µM [12] of 77% and an inhibition at 0.5 µM [13] of 1%. The inhibition at 10 µM [13] was 39%, the “% Inhibition” value ([14]; 0.5 µM) was 3% and the “% Inhibition” value ([14]; 10 µM) was 56%.

With `Cn1ncc(Cl)c1-c1cc(C(=O)N[C@H](CN)Cc2ccc(F)c(F)c2)oc1Cl` [GSK2141795] the inhibition at 0.5 µM ([1]; 0.5 µM, read-out: % Inhibition) was -3%, the inhibition at 10 µM ([1]; 10 µM, read-out: % Inhibition) was 16% and the “time for insulin to return to normal” value ([2]; single 30 mg/kg dose) was no more than 8 h. It also gave a plasma insulin ([2]; single 30 mg/kg dose, concomitant with glucose at 2 h) of 188 ng/mL, an inhibition at 0.5 µM ([3]; 0.5 µM, read-out: % Inhibition) of -18% and an inhibition at 10 µM ([3]; 10 µM, read-out: % Inhibition) of 21%. For the same molecule, the inhibition at 0.5 µM ([4]; 0.5 µM, read-out: % Inhibition) was -17%, the inhibition at 10 µM ([4]; 10 µM, read-out: % Inhibition) was -16% and the inhibition at 0.5 µM ([5]; 0.5 µM, read-out: % Inhibition) was -10%. The inhibition at 10 µM ([5]; 10 µM, read-out: % Inhibition) was 41%, the inhibition at 0.5 µM ([6]; 0.5 µM, read-out: % Inhibition) was -18% and the inhibition at 10 µM ([6]; 10 µM, read-out: % Inhibition) was 18%. The inhibition at 0.5 µM ([7]; 0.5 µM, read-out: % Inhibition) was 81%, the inhibition at 10 µM ([7]; 10 µM, read-out: % Inhibition) was 96% and the inhibition at 0.5 µM ([8]; 0.5 µM, read-out: % Inhibition) was 1%. For the same molecule, the inhibition at 10 µM ([8]; 10 µM, read-out: % Inhibition) was 20%, the inhibition at 0.5 µM ([9]; 0.5 µM, read-out: % Inhibition) was 80% and the inhibition at 10 µM ([9]; 10 µM, read-out: % Inhibition) was 97%. The inhibition at 0.5 µM ([10]; 0.5 µM, read-out: % Inhibition) was -2%, the inhibition at 10 µM ([10]; 10 µM, read-out: % Inhibition) was 13% and the IC50 [11] was 64 nM. The inhibition at 0.5 µM ([12]; 0.5 µM, read-out: % Inhibition) was 18%, the inhibition at 10 µM ([12]; 10 µM, read-out: % Inhibition) was 71% and the inhibition at 0.5 µM ([13]; 0.5 µM, read-out: % Inhibition) was -3%. For the same molecule, the inhibition at 10 µM ([13]; 10 µM, read-out: % Inhibition) was 5%, the “% Inhibition” value ([14]; 0.5 µM) was 10% and the “% Inhibition” value ([14]; 10 µM) was 76%.
